Data as given in article PMC8286840, “Identifying SARS-CoV-2 antiviral compounds by screening for small molecule inhibitors of Nsp3 papain-like protease” (Biochemical Journal, 2021).
“And” between values parts separate entries of the source, which are not always exact repeats. Identical values can stand only once. “Also recorded” adds a separate entry of the source. Like-named read-outs stand apart in the source and are kept apart here.

Key:
[1] = target: T1, SARS-CoV-2 PLpro (nsp3 1564–1878) (Severe acute respiratory syndrome coronavirus 2, UniProt P0DTD1); experiment: biochemical; details: read-out: % of control remaining
[2] = target: T1, SARS-CoV-2 PLpro (nsp3 1564–1878); experiment: biochemical; details: read-out: % of control remaining; remark: listed apart in the source
[3] = tested on: VERO E6 cells
[4] = target: T1, SARS-CoV-2 PLpro (nsp3 1564–1878); experiment: biochemical; assay type: biochemical; details: for IC50: fluorescent-based assay; for Z score: screen hits, Table 1; for slope value (of slope value/control) 1.25 µM / slope value (of slope value/control) 3.75 µM: number after the slash is the control without compound; for inhibition at 1.25 µM: read-out: Inhibition (%) 1.25 µM; for inhibition at 3.75 µM: read-out: Inhibition (%) 3.75 µM
[5] = target: T1, SARS-CoV-2 PLpro (nsp3 1564–1878); experiment: biochemical; parameters: FRET-quenched peptide (Pro3) cleavage by PLpro, 10 min pre-incubation, slope over 20 min, normalised to no-compound control; details: low concentration screen, read-out: % of control remaining
[6] = target: 3CLpro (nsp5) (Severe acute respiratory syndrome coronavirus 2, UniProt P0DTD1); assay type: biochemical, SARS-CoV-2
[7] = target: T2, SARS-CoV-2 PLpro (Severe acute respiratory syndrome coronavirus 2, UniProt P0DTD1); assay type: biochemical; details: 3.75 µM and 10 µM compound, 0.5 µM enzyme, 5 h RT
[8] = target: T1, SARS-CoV-2 PLpro (nsp3 1564–1878); experiment: biochemical; parameters: FRET-quenched peptide (Pro3) cleavage by PLpro, 10 min pre-incubation, slope over 20 min, normalised to no-compound control; details: high concentration screen, read-out: % of control remaining
[9] = tested on: SARS-CoV-2; experiment: microbe, parasite or virus in culture; assay type: cell-based
[10] = tested on: PLpro from SARS-CoV-1; details: cited from earlier work
[11] = target: T2, SARS-CoV-2 PLpro; assay type: biochemical; details: 10 µM inhibitor, 50 nM PLpro, 1 µM substrate, 1 h 25°C
[12] = target: T2, SARS-CoV-2 PLpro; assay type: biochemical; details: 10 µM inhibitor, 50 nM PLpro, 1 µM substrate, 1 h 25°C; remark: listed apart in the source
[13] = tested on: VERO E6 cells; experiment: Cytotoxicity in the cell culture-based assay
[14] = tested on: SARS-CoV-1/-2 PLpro; details: non-covalent inhibitor; cited from earlier work
[15] = screen, 1.25 µM compound, 1.75 µM enzyme, 20 µM substrate
[16] = screen, 3.75 µM compound, 1.75 µM enzyme, 20 µM substrate
[17] = VERO E6 cells, compound alone, read-out: EC50 viral proliferation
[18] = Severe acute respiratory syndrome coronavirus 2, Vero C1008, VERO E6 cells, compound alone, read-out: EC50 viral proliferation
[19] = Severe acute respiratory syndrome coronavirus 2, Vero C1008, VERO E6 cells, compound plus 0.5 µM remdesivir, read-out: EC50 viral proliferation with remdesivir

Structure (SMILES) | Cytotoxicity [3] | IC50 [4] | Z score [4] | slope value (of slope value/control) 1.25 µM ([4]; screen, 1.25 µM compound) | slope value (of slope value/control) 3.75 µM ([4]; screen, 3.75 µM compound) | Inhibition of 3CLpro activity (gel-based) ([6]; 3 and 10 µM compound) | Inhibition of PLpro cleavage of the substrate (gel-based) [7] | Inhibition of SARS-CoV-1 PLpro [10] | EC50 [9, 18] | inhibition at 1.25 µM [4, 15] | inhibition at 3.75 µM [4, 16] | Inhibition of K48-linked Ub3 cleavage (DUB activity) [11] | Inhibition of pro-ISG15 cleavage (deISGylating activity) [12] | also measured
C[N+]1(C)CCc2cc3c(cc2[C@H]1[C@@H]1OC(=O)c2c1ccc1c2OCO1)OCO3 [(-)-Bicuculline methbromide, 1(S), 9(R)] | – | – | – | – | – | – | – | – | – | – | – | – | – | remaining activity at 3.75 µM [1]: 103%; remaining activity at 1.25 µM [2]: 100%
Cc1ccc(NC2=CC(=O)c3sc(C)nc3C2=O)cc1 [Cdk4 Inhibitor III] | cytotoxic in the low micromolar range | 0.39 µM and 0.393 µM | −5.34 | 367 | 302 | did not inhibit | show inhibition; also recorded: strongly inhibited | – | – | – | – | – | – | Inhibition (%) 1.25 µM [4, 15]: 19%; Inhibition (%) 3.75 µM [4, 16]: 39%; remaining activity at 1.25 µM ([5]; Well no.=2408): 81.1%; remaining activity at 3.75 µM ([8]; Well no.=2408): 61.4%; EC50 [9, 17]: 3.4 µM
C[C@H]1COC2=C1C(=O)C(=O)c1c2ccc2c1CCCC2(C)C [Cryptotanshinone, cryptotanshinone] | – | – | – | – | – | did not inhibit | show inhibition; also recorded: inhibited cleavage, but only at the higher concentration | better inhibitors of this enzyme than dihydrotanshinone I | 223 µM | – | – | – | – | remaining activity at 1.25 µM ([5]; Well no.=3557): 100%; remaining activity at 3.75 µM ([8]; Well no.=3557): 103%; Concentration below which viral growth was not inhibited ([9]; VERO E6 cells): ≥ 200 µM
Cc1cccc2c3c(ccc12)C1=C(C(=O)C3=O)[C@@H](C)CO1 [Dihydrotanshinone I] | – | 0.586 µM | −4.52 | 449 | 329 | did not inhibit | show inhibition; also recorded: strongly inhibited | inhibit | 8 µM | 0% | 33% | potent inhibition; also recorded: inhibited strongly | potent inhibition | IC50 ([4]; listed as dihydrotanshione I): 0.59 µM; EC50 [9, 19]: 5.35 µM; EC50 [9, 17]: 8.15 µM; Cytotoxicity [13]: did not exhibit much cytotoxicity
Cc1ccc(N)cc1C(=O)N[C@H](C)c1cccc2ccccc12 [GRL-0617] | some cell toxicity at higher concentrations | – | – | – | – | – | – | – | – | – | – | – | – | Effectiveness against SARS-CoV-1/-2 PLpro [14]: effective; EC50 ([9]; read-out: EC50 viral proliferation): 32.6 µM; EC50 ([9]; read-out: EC50 viral proliferation with remdesivir): 32.2 µM
C=C1C(=O)O[C@@H]2[C@H]3O[C@]3(C)CC/C=C(\C)CC[C@@H]12 [Parthenolide] | – | – | – | – | – | – | – | – | – | – | – | – | – | remaining activity at 3.75 µM [1]: 97.3%; remaining activity at 1.25 µM [2]: 96.7%
Cc1cc2nc3c(=O)[nH]c(=O)nc-3n(C)c2cc1C=O [Ro 08-2750, 2,3,4,10-Tetrahydro-7,10-dimethyl-2,4-dioxobenzo[g]pteridine-8-carboxaldehyde] | some cell toxicity at higher concentrations | 0.53 µM and 0.531 µM | −5.79 | 366 | 287 | did not inhibit | show inhibition; also recorded: strongly inhibited | – | 20 µM | 19% | 42% | moderate inhibition; also recorded: moderately | moderate inhibition | EC50 [9, 19]: 22.7 µM
Cc1coc2c1C(=O)C(=O)c1c-2ccc2c1CCCC2(C)C [Tanshinone IIA, tanshinone IIA] | – | – | – | – | – | – | inhibited cleavage, but only at the higher concentration | better inhibitors of this enzyme than dihydrotanshinone I | 1150 µM | – | – | – | – | remaining activity at 1.25 µM ([5]; Well no.=3178): 105%; remaining activity at 1.25 µM ([5]; Well no.=4084): 99.4%; Inhibition of 3CLpro activity (gel-based) [6]: did not inhibit; Inhibition of PLpro cleavage of the substrate (gel-based) ([7]; listed as tanshinone IIA): show inhibition; remaining activity at 3.75 µM ([8]; Well no.=3178): 105%; remaining activity at 3.75 µM ([8]; Well no.=4084): 89.9%
CC1(C)CCC2=C(O1)c1ccccc1C(=O)C2=O [beta-Lapachone] | – | 0.61 µM | −4.66 | 420 | 322 | – | show inhibition; also recorded: strongly inhibited | – | 4.39 µM | 7% | 34% | potent inhibition; also recorded: inhibited strongly | potent inhibition | Inhibition of 3CLpro activity (gel-based) [6]: did not inhibit; Cytotoxicity [13]: cytotoxic in the low micromolar range
